In patent US20240262793A1, “QUINAZOLINE COMPOUND, AND PREPARATION METHOD THEREFOR AND APPLICATION THEREOF” (SHANGHAI PHARMACEUTICALS HOLDING CO., LTD., priority 2021, published 2024):

What was measured:
Assay type in all cases: cell-based
Conditions in all cases: Homo sapiens, LPS 100 ng/mL
IL-1β = test: Inhibition of IL-1β in PMA-differentiated, LPS-stimulated THP-1 cells (ELISA of cell lysate)
Description: (§1) (1) Cell culture and inoculation: A stock solution of PMA at 1 mg/mL was diluted with serum-free RP1640 medium to prepare a 100 ng/mL PMA solution. Normal cultured THP-1 cells were centrifuged, resuspended in a complete medium (RP1640 medium containing 10% FBS), and counted. The cell density was adjusted to 2×10^6 cells/mL. An equal volume of 100 ng/mL PMA solution was then added, resulting in a cell density of 1×10^6 cells/mL and a final PMA concentration of 50 ng/mL. 100 μL of the cell suspension was seeded into each well of a 96-well cell culture plate with 1×10^5 cells per well. The 96-well cell culture plate was then incubated at 37° C. in a 5% CO2 atmosphere for 24 hours.
(§2) (2) Drug treatment of cells: On the second day, LPS was added to the complete medium to adjust the final concentration to 100 ng/mL, and the compound was prepared using this LPS-containing medium. The compound was added to the appropriate cell wells according to the prepared concentration gradient. The positive control group (LPS+) was a culture medium solution containing a final concentration of 100 ng/mL LPS and 0.1% DMSO without drugs, while the negative control group (LPS-) was a culture medium solution containing 0.1% DMSO without LPS. The volume in each well was 100 μL.
(§3) (3) Test sample collection: The mixture was centrifuged at 1000 rpm for 5 minutes and the cell supernatant and cell precipitate were collected separately. The cell supernatant was used to detect TNF-α and IL-6, and the cell precipitate was collected for IL-1β detection. After collecting the cell supernatant, the remaining liquid in the wells was discarded and 100 μL of cell lysis solution (20 mM Tris 8.0; 2 mM EDTA; 0.5% Triton X-100) was added to each well for complete lysis.
(§4) (4) Sample detection: The enzyme-linked immunosorbent assay (ELISA) was used to detect the content of each cytokine. The specific steps were performed according to the instructions provided in the corresponding kit manuals. The catalog numbers of kits are as follows: • Human TNF-alpha Quantikine ELISA Kit, Catalog # STA00D • Human IL-1 beta/IL-1F2 Quantikine ELISA Kit, Catalog # SLB50 • Human IL-6 Quantikine ELISA Kit, Catalog # S6050.
(§5) (5) Data analysis: The in vitro inhibitory activity of the compounds was calculated using the following formula: […]

TNF-α = test: Inhibition of TNF-α in PMA-differentiated, LPS-stimulated THP-1 cells (ELISA of cell supernatant)
Description: as §1, §2, §3, §4, §5

IL-6 = test: Inhibition of IL-6 in PMA-differentiated, LPS-stimulated THP-1 cells (ELISA of cell supernatant)
Description: as §1, §2, §3, §4, §5

Row | IC50 (IL-1β; THP-1, Table 7, PMA 50 ng/mL) | IC50 (TNF-α; THP-1, Table 7, PMA 50 ng/mL) | IC50 (IL-6; THP-1, Table 7, PMA 50 ng/mL) | IC50 (IL-1β; THP-1, Table 8, PMA 50 ng/mL) | IC50 (TNF-α; THP-1, Table 8, PMA 50 ng/mL) | IC50 (IL-6; THP-1, Table 8, PMA 50 ng/mL) | SMILES
1 | 9.79 µM | 6.91 µM | 2.06 µM |  |  |  | COC(=O)c1ccc(CN(CCO)CCCC(C)Nc2ccnc3cc(Cl)ccc23)c(OC)c1 (stereo not drawn) [Example 22, Methyl 4-(((4-((7-chloroquinolin-4-yl)amino)pentyl)(2-hydroxyethyl)amino)methyl)-3-methoxybenzoate]
2 | 1.36 µM | 2.79 µM | 0.38 µM |  |  |  | CC(CCCN(CCO)Cc1ccc(C#N)cc1)Nc1ccnc2cc(Cl)ccc12 (stereo not drawn) [Example 23, 4-(((4-((7-Chloroquinolin-4-yl)amino)pentyl)(2-hydroxyethyl)amino)methyl)benzonitrile]
3 | 4.46 µM | 4.77 µM | 1.2 µM |  |  |  | CC(CCCN(CCO)Cc1cccc(C(F)(F)F)c1)Nc1ccnc2cc(Cl)ccc12 (stereo not drawn) [Example 24, 2-((4-((7-Chloroquinolin-4-yl)amino)pentyl)(3-(trifluoromethyl)benzyl)amino)ethan-1-ol]
4 | 4.36 µM | 5.07 µM | 1.32 µM |  |  |  | CC(CCCN(CCO)Cc1ccc2ccccc2c1)Nc1ccnc2cc(Cl)ccc12 (stereo not drawn) [Example 25, 2-((4-((7-Chloroquinolin-4-yl)amino)pentyl)(naphthalen-2-ylmethyl)amino)ethan-1-ol]
5 | 14 µM | 3.82 µM | 0.33 µM |  |  |  | CC(CCCN(CCO)Cc1ccc(S(C)(=O)=O)cc1)Nc1ccnc2cc(Cl)ccc12 (stereo not drawn) [Example 26, 2-((4-((7-Chloroquinolin-4-yl)amino)pentyl)(4-(methylsulfonyl)benzyl)amino)ethan-1-ol]
6 | 5.78 µM | 2.17 µM | 0.53 µM |  |  |  | COC(=O)c1ccc(CN(CCO)CCCC(C)Nc2ccnc3cc(Cl)ccc23)cc1 (stereo not drawn) [Example 27, Methyl 4-(((4-((7-chloroquinolin-4-yl)amino)pentyl)(2-hydroxyethyl)amino)methyl)benzoate]
7 | 10.9 µM | 11.2 µM | 0.68 µM |  |  |  | CC(CCCN(CCO)Cc1ccc(-n2cccn2)cc1)Nc1ccnc2cc(Cl)ccc12 (stereo not drawn) [Example 28, 2-((4-(1H-Pyrazol-1-yl)benzyl)(4-((7-chloroquinolin-4-yl)amino)pentyl)amino)ethan-1-ol]
8 | 4.11 µM | 2.63 µM | 0.36 µM |  |  |  | CC(CCCN(CCO)Cc1c(F)cccc1Cl)Nc1ccnc2cc(Cl)ccc12 (stereo not drawn) [Example 29, 2-((2-Fluoro-6-chlorobenzyl)(4-((7-chloroquinolin-4-yl)amino)pentyl)amino)ethan-1-ol]
9 | 1.34 µM | 0.97 µM | 0.12 µM |  |  |  | CC(CCCN(CCO)Cc1ccc(C#N)cc1F)Nc1ccnc2cc(Cl)ccc12 (stereo not drawn) [Example 30, 4-(((4-((7-Chloroquinolin-4-yl)amino)pentyl)(2-hydroxyethyl)amino)methyl)-3-fluorobenzonitrile]
10 | 8.64 µM | 7.13 µM | 1.31 µM |  |  |  | COc1ccc(CN(CCO)CCCC(C)Nc2ccnc3cc(Cl)ccc23)cc1F (stereo not drawn) [Example 31, 2-((4-((7-Chloroquinolin-4-yl)amino)pentyl)(3-fluoro-4-methoxybenzyl)amino)ethan-1-ol]
11 | 36.6 µM | 33.4 µM | 3.16 µM |  |  |  | CC(CCCN(CCO)Cc1ccccc1)Nc1ncnc2cc(Cl)ccc12 (stereo not drawn) [Example 34, 2-(Benzyl(4-((7-chloroquinazolin-4-yl)amino)pentyl)amino)ethan-1-ol]
12 | 5.66 µM | 20.1 µM | 0.82 µM |  |  |  | CC(CCCN(CCO)Cc1ccccc1)Nc1ncnc2cc(F)ccc12 (stereo not drawn) [Example 35, 2-(Benzyl(4-((7-fluoroquinazolin-4-yl)amino)pentyl)amino)ethan-1-ol]
13 | 17.2 µM | 6.86 µM | 1.05 µM |  |  |  | COC(=O)c1ccc(CN(CCO)CCCC(C)Nc2ncnc3cc(Cl)ccc23)cc1 (stereo not drawn) [Example 36, Methyl 4-(((4-((7-chloroquinazolin-4-yl)amino)pentyl)(2-hydroxyethyl)amino)methyl)benzoate]
14 | 41.8 µM | 4.88 µM | 0.18 µM |  |  |  | COc1ccc(CN(CCO)CCCC(C)Nc2ncnc3cc(Cl)ccc23)cc1F (stereo not drawn) [Example 37]
15 | 7.4 µM | 7.89 µM | 0.77 µM |  |  |  | CC(CCCN(CCO)Cc1ccc(-n2cccn2)cc1)Nc1ncnc2cc(Cl)ccc12 (stereo not drawn) [Example 39]
16 | 0.7 µM | 10.1 µM | 0.6 µM |  |  |  | CC(CCCN(CCO)Cc1ccc(S(C)(=O)=O)cc1)Nc1ncnc2cc(Cl)ccc12 (stereo not drawn) [Example 40]

Row | IC50 (IL-1β; THP-1, Table 7, PMA 50 ng/mL) | IC50 (TNF-α; THP-1, Table 7, PMA 50 ng/mL) | IC50 (IL-6; THP-1, Table 7, PMA 50 ng/mL) | IC50 (IL-1β; THP-1, Table 8, PMA 50 ng/mL) | IC50 (TNF-α; THP-1, Table 8, PMA 50 ng/mL) | IC50 (IL-6; THP-1, Table 8, PMA 50 ng/mL) | SMILES
17 | 3.31 µM | 6.56 µM | 2.84 µM |  |  |  | COC(=O)c1ccc(CN(CCO)CCCC(C)Nc2ccnc3cc(F)ccc23)cc1 (stereo not drawn) [Example 42]
18 | 33.8 µM | 4.01 µM | 1.57 µM |  |  |  | CC(CCCN(CCO)Cc1ccc(OC(F)(F)F)cc1)Nc1ccnc2cc(F)ccc12 (stereo not drawn) [Example 43]
19 | 21.1 µM | 19.9 µM | 0.77 µM |  |  |  | COC(=O)c1ccc(CN(CCO)CCCCCNc2ncnc3cc(Cl)ccc23)cc1 [Example 44, Methyl 4-(((5-((7-chloroquinazolin-4-yl)amino)pentyl)(2-hydroxyethyl)amino)methyl)benzoate]
20 | 10.3 µM | 12.6 µM | 1.09 µM |  |  |  | OCCN(CCCCCNc1ncnc2cc(Cl)ccc12)Cc1ccc(OC(F)(F)F)cc1 [Example 45, 2-((5-((7-Chloroquinazolin-4-yl)amino)pentyl)(4-(trifluoromethoxy)benzyl)amino)ethan-1-ol]
21 | 1 µM | 58.1 µM | 1.94 µM |  |  |  | OCCN(CCCCNc1ncnc2cc(Cl)ccc12)Cc1ncco1 [Example 47, 2-((4-((7-Chloroquinazolin-4-yl)amino)butyl)(oxazol-2-ylmethyl)amino)ethan-1-ol]
22 | 49.6 µM | 14.8 µM | 0.91 µM |  |  |  | OCCN(CCCCCNc1ncnc2cc(F)ccc12)Cc1ncco1 [Example 48, 2-((5-((7-Fluoroquinazolin-4-yl)amino)pentyl)(oxazol-2-ylmethyl)amino)ethan-1-ol]
23 | 48.2 µM | 18.5 µM | 1.15 µM |  |  |  | CS(=O)(=O)c1ccc(CN(CCO)CCCCCNc2ncnc3cc(F)ccc23)cc1 [Example 49]
24 |  |  |  | 3.52 µM | 3.96 µM | 0.04 µM | O=C1NC2(CCC2)C(=O)N1CCCCCNc1ncnc2cc(F)ccc12 [Example 51, 7-(5-((7-Fluoroquinazolin-4-yl)amino)pentyl)-5,7-diazaspiro[3.4]octane-6,8-dione]
25 |  |  |  | 21 µM | 28.3 µM | 0.28 µM | O=C1NC2(CCCC2)C(=O)N1CCCCCNc1ncnc2cc(F)ccc12 [Example 52, 3-(5-((7-Fluoroquinazolin-4-yl)amino)pentyl)-1,3-diazaspiro[4.4]nonane-2,4-dione]
26 |  |  |  | 154 µM | 114 µM | 1.05 µM | CN1CC(=O)N(CCCCCNc2ncnc3cc(F)ccc23)C1=O [Example 54, 3-(5-((7-Fluoroquinazolin-4-yl)amino)pentyl)-1-methylimidazoline-2,4-dione]
27 |  |  |  | 63.8 µM | 34.9 µM | 0.34 µM | O=C1NC2(CC2)C(=O)N1CCCCCNc1ncnc2cc(F)ccc12 [Example 55, 6-(5-((7-Fluoroquinazolin-4-yl)amino)pentyl)-4,6-diazaspiro[2.4]heptane-5,7-dione]
28 |  |  |  | 16.3 µM | 159 µM | 18.8 µM | O=C1CNC(=O)N1CCCCNc1ncnc2cc(F)ccc12 [Example 56, 3-(4-((7-Fluoroquinazolin-4-yl)amino)butyl)imidazoline-2,4-dione]
29 |  |  |  | 53.9 µM | 29.4 µM | 3.22 µM | CC1(C)NC(=O)N(CCCCNc2ncnc3cc(F)ccc23)C1=O [Example 57, 3-(4-((7-Fluoroquinazolin-4-yl)amino)butyl)-5,5-dimethylimidazoline-2,4-dione]
30 |  |  |  | 86.5 µM | 90.7 µM | 2.58 µM | CN1CC(=O)N(CCCCNc2ncnc3cc(F)ccc23)C1=O [Example 58, 3-(4-((7-Fluoroquinazolin-4-yl)amino)butyl)-1-methylimidazoline-2,4-dione]
31 |  |  |  | 80.5 µM | 12.1 µM | 0.37 µM | O=C1NC2(CCCC2)C(=O)N1CCCCNc1ncnc2cc(F)ccc12 [Example 59, 3-(4-((7-Fluoroquinazolin-4-yl)amino)butyl)-1,3-diazaspiro[4.4]nonane-2,4-dione]
32 |  |  |  | 51.6 µM | 7.18 µM | 0.75 µM | O=C1NC2(CCCC2)C(=O)N1CCCCNc1ncnc2cc(Cl)ccc12 [Example 62, 3-(4-((7-Chloroquinazolin-4-yl)amino)butyl)-1,3-diazaspiro[4.4]nonane-2,4-dione]
